# Measurements taken from patent US7989438B2, “Therapeutic compounds” (Istituto di Ricerche di Biologia Molecolare P. Angeletti SpA, priority 2007, dated 2011).
# Read-outs that look alike come from different tables or passages of the source.
# Test system: HCV subgenomic replication
# Assay: Cell based HCV replication assay (subgenomic replicon in Huh-7 cells, NS3 Cell-ELISA)
# Settings: activity ranges
# How it was run: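 Huh-7 cells stably carrying the I377neo/NS3-3′/wt subgenomic replicon, seeded at 10^4 cells/well in DMEM/10% FCS and exposed to inhibitor for 96 h. NS3 expression was measured by Cell-ELISA (mAb 10E5/24, alkaline phosphatase, absorbance 405/620 nm), in duplicate. IC50 was fitted to the Hill equation, with background from parental Huh-7 cells.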
# [1] = Table 1, 16 membered macrocycles, read-out: IC50* (nM), Inhibition of HCV subgenomic replication
# [2] = Table 4, various macrocycles, read-out: IC50* (nM), Inhibition of HCV subgenomic replication
# [3] = Table 5, various macrocycles, read-out: IC50* (nM), Inhibition of HCV subgenomic replication
# [4] = Table A, Huh-7 replicon cells, 96 hours, read-out: IC50 (nM), Inhibition of HCV subgenomic replication
compound,measurement,setting,value
"CN(C)CC(=O)N1CCN(C)[C@H]2COc3ccccc3-c3c(C4CCCCC4)c4ccc(cc4n3C2)C(=O)NS(=O)(=O)N(C)CC1 [Example 105, (7R)-14-cyclohexyl-21-(N,N-dimethylglycyl)-18,24-dimethyl-7,8-dihydro-6H-7,11-(epiminoethanoiminoethanoiminothioiminomethano)-indolo[1,2-e][1,5]benzoxazocin-15-one 17,17-dioxide]",IC50,[1],< 25 nM
"CN1[C@H]2CCN(CCN(C)S(=O)(=O)NC(=O)c3ccc4c(C5CCCCC5)c5n(c4c3)C[C@@H]1COc1ccccc1-5)C2 [Compound A21, (16S,18R)-29-cyclohexyl-10,17-dimethyl-20-oxa-9-thia-1,8,10,13,17-pentaazahexacyclo[16.9.1.1^2,6.1^3,27.1^13,16.0^21,26]hentriaconta-2(31),3,5,21,23,25,27(29)-heptaen-7-one 9,9-dioxide]",IC50,"Hepatitis C virus, Table A, Huh-7 replicon cells, 96 hours, read-out: IC50 (nM), Inhibition of HCV subgenomic replication",< 25 nM
"CN1CCN(C)C2COc3ccccc3-c3c(C4CCCCC4F)c4ccc(cc4n3C2)C(=O)NS(=O)(=O)N(C)CC1 (single isomer, unassigned) [Example 413, (7R)-14-[(1R,2S) or (1S,2R)-2-fluorocyclohexyl]-18,21,24-trimethyl-7,8-dihydro-6H-7,11-(epiminoethanoiminoethanoiminothioiminomethano)-indolo[1,2-e][1,5]benzoxazocin-15-one 17,17-dioxide]",IC50,[2],< 25 nM
"CN1CCNCCN(C)S(=O)(=O)NC(=O)c2ccc3c(C4CCCCC4)c4n(c3c2)C[C@@H]1COc1c(CN2CCOCC2)cccc1-4 [Example 410, (7R)-14-cyclohexyl-18,24-dimethyl-4-(morpholin-4-ylmethyl)-7,8-dihydro-6H-7,11-(epiminoethanoiminoethanoiminothioiminomethano)-indolo[1,2-e][1,5]benzoxazocin-15-one 17,17-dioxide]",IC50,[2],25 to 150 nM
"CN1CC2CCN(CC2)S(=O)(=O)NC(=O)c2ccc3c([C@H]4CCCC[C@@H]4F)c4n(c3c2)CC(COc2ccccc2-4)C1 (single isomer, unassigned) [Example 503, 30-[(1R,2S) or (1S,2R)-2-fluorocyclohexyl]-22-methyl-18-oxa-2-thia-1,3,10,22-tetraazahexacyclo[22.2.2.1^5,9.1^8,11.1^10,20.0^12,17]hentriaconta-5(31),6,8,11(30),12,14,16-heptaen-4-one 2,2-dioxide]",IC50,"Hepatitis C virus, Huh-7, Table 5, various macrocycles, read-out: IC50* (nM), Inhibition of HCV subgenomic replication",25 to 150 nM
"(5R)-31-cyclohexyl-4,24-dimethyl-7-oxa-23-thia-1,4,15,22,24-pentaazahexacyclo[23.2.2.1^5,15.1^14,17.1^16,20.0^8,13]dotriaconta-8,10,12,14(31),16(30),17,19-heptaen-21-one 23,23-dioxide [Example 305]",IC50,"Table 3, various macrocycles, read-out: IC50* (nM), Inhibition of HCV subgenomic replication",< 25 nM
"CN1CCNCCN(C)S(=O)(=O)NC(=O)c2ccc3c(C4CCCCC4)c4n(c3c2)CC1COc1ccccc1-4 [Example 401, (7S)-14-cyclohexyl-18,24-dimethyl-7,8-dihydro-6H-7,11-(epiminoethanoiminoethanoiminothioiminomethano)-indolo[1,2-e][1,5]benzoxazocin-15-one 17,17-dioxide]",IC50,[2],25 to 150 nM
"CN1CCN(CC(N)=O)C2COc3ccccc3-c3c(C4CCCCC4)c4ccc(cc4n3C2)C(=O)NS(=O)(=O)N(C)CC1 [Example 408, 2-[(7R)-14-cyclohexyl-18,21-dimethyl-17,17-dioxido-15-oxo-7,8-dihydro-6H-7,11-(epiminoethanoiminoethanoiminothioiminomethano)-indolo[1,2-e][1,5]benzoxazocin-24-yl]acetamide]",IC50,[2],25 to 150 nM
"CC(C)N1CCCN(C)S(=O)(=O)NC(=O)c2ccc3c(C4CCCCC4)c4n(c3c2)CC(CC1)COc1ccccc1-4 (single isomer, unassigned) [Example 506, (7R) or (7S)-14-cyclohexyl-22-isopropyl-18-methyl-7,8-dihydro-6H-7,11-(ethanoiminopropanoiminothioiminomethano)indolo[1,2-e][1,5]benzoxazocin-15-one 17,17-dioxide]",IC50,[3],< 25 nM
"CN1CCN(C)CC2Cn3c(c(C4CCCCC4)c4ccc(cc43)C(=O)NS(=O)(=O)N(C)CC1)-c1ccccc1N2C (centres unmarked) [Compound A9, 13-cyclohexyl-5,17,20,23-tetramethyl-6,7-dihydro-5H-10,6-(methanoiminothioiminoethanoiminoethanoiminomethano)indolo[1,2-d][1,4]benzodiazepin-14-one 16,16-dioxide]",IC50,[4],25 to 150 nM
"CN1CCOCC2COc3ccccc3-c3c(C4CCCCC4)c4ccc(cc4n3C2)C(=O)NS(=O)(=O)N(C)CC1 (single isomer, unassigned) [Compound A39, (7R or 7S)-14-cyclohexyl-18,21-dimethyl-7,8-dihydro-6H-7,11-(methanooxyethanoiminoethanoiminothioiminomethano)indolo[1,2-e][1,5]benzoxazocin-15-one 17,17-dioxide]",IC50,[4],< 25 nM
"CN1CCC(C)(C)CCN(C)S(=O)(=O)NC(=O)c2ccc3c(C4CCCCC4)c4n(c3c2)CC1COc1ccccc1-4 [Example 512, (7R)-14-cyclohexyl-18,21,21,24-tetramethyl-7,8-dihydro-6H-7,11-(epiminopentanoiminothioiminomethano)indolo[1,2-e][1,5]benzoxazocin-15-one 17,17-dioxide]",IC50,[3],150 to 500 nM
"CCN1CCN(C)C2COc3ccccc3-c3c(C4CCCCC4)c4ccc(cc4n3C2)C(=O)NS(=O)(=O)N(CCO)CC1 [Example 106, (7R)-14-cyclohexyl-21-ethyl-18-(2-hydroxyethyl)-24-methyl-7,8-dihydro-6H-7,11-(epiminoethanoiminoethanoiminothioiminomethano)-indolo[1,2-e][1,5]benzoxazocin-15-one 17,17-dioxide]",IC50,[1],< 25 nM
"COc1ccc2c(c1)OCC1CCN(C)CC(F)(F)CN(C)S(=O)(=O)NC(=O)c3ccc4c(C5CCCCC5)c-2n(c4c3)C1 [Example 524, (7R)-14-cyclohexyl-20,20-difluoro-3-methoxy-18,22-dimethyl-7,8-dihydro-6H-7,11-(ethanoiminopropanoiminothioiminomethano)indolo[1,2-e][1,5]benzoxazocin-15-one 17,17-dioxide]",IC50,[3],150 to 500 nM
"CN1CCNCCN(C)S(=O)(=O)NC(=O)c2ccc3c(C4CCCCC4)c4n(c3c2)CC1COc1ccccc1-4 [Compound A1, (7R)-14-cyclohexyl-18,24-dimethyl-7,8-dihydro-6H-7,11-(epiminoethanoiminoethanoiminothioiminomethano)indolo[1,2-e][1,5]benzoxazocin-15-one 17,17-dioxide]",IC50,[4],< 25 nM
"COc1cccc2c1OCC1Cn3c-2c(C2CCCCC2)c2ccc(cc23)C(=O)NS(=O)(=O)N(C)CCOCCN1C [Example 519, (7R)-14-cyclohexyl-4-methoxy-18,24-dimethyl-7,8-dihydro-6H-7,11-(epiminoethanooxyethanoiminothioiminomethano)indolo[1,2-e][1,5]benzoxazocin-15-one 17,17-dioxide]",IC50,[3],25 to 150 nM
"COc1cccc2c1OCC1CCCN(C)CCN(C)S(=O)(=O)NC(=O)c3ccc4c(C5CCCCC5)c-2n(c4c3)C1 [Example 510, (7R)-14-cyclohexyl-4-methoxy-18,21-dimethyl-7,8-dihydro-6H-7,11-(propanoiminoethanoiminothioiminomethano)indolo[1,2-e][1,5]benzoxazocin-15-one 17,17-dioxide]",IC50,[3],< 25 nM
